The numbers were not newly measured in patent US8048872B2, “Treatment of hyperproliferative diseases with vinca alkaloid N-oxide and analogs” (Stat of Oregon Acting by and Through The Oregon State Board …, priority 2006, dated 2011), which cites them from elsewhere.

Values joined by “and” are separate entries in the source; they are usually repeats but may differ in a detail not shown here. Equal values may be shown once. Read-outs that look alike come from different tables or passages of the source.

The conditions of the series: cited from earlier work; for patients developing pneumonia: refractory chronic lymphocytic leukemia.
[1] abbreviates: acute promyelocytic leukemia patients.

Take `CCCCCOC(=O)Nc1nc(=O)n([C@@H]2O[C@H](C)[C@@H](O)[C@H]2O)cc1F` [Capecitabine]: where the note is “human, in vivo, iv”, the Dehydration result is on record as “Dehydration 4%”, the Fatigue entry is recorded as “Fatigue 7%”, the Hyperbilirubinemia is listed as 17.3% and the Hyperglycemia result is “Hyperglycemia 8.7%”. Further, where the note is “human, in vivo, iv”, the “Leukopenia/Neutropenia Toxicity” value was “Grade III-IV 3%”, the Nausea entry is listed as “Nausea 4%”, the Stomatitis result is “Stomatitis 3%” and the Vomiting entry is recorded as “Vomiting 4%”. Moreover, the Leukopenia entry (human, in vivo) is “Grade III 0.3%”.

On to `CC1=C(/C=C/C(C)=C/C=C/C(C)=C/C(=O)O)C(C)(C)CCC1` [all-trans-retinoic acid, reference compound], for which, under setting [1], the lethal pulmonary toxicity is recorded as 2%, the life-threatening pulmonary toxicity is reported as 11%, the “patients developing grade III or IV pulmonary toxicity (total)” value was “Twenty” and the severe pulmonary toxicity is 7%.

Turning to `CCC1=C[C@@H]2CN(C1)Cc1c([nH]c3ccccc13)[C@@](C(=O)OC)(c1cc3c(cc1OC)N(C)[C@H]1[C@@](O)(C(=O)OC)[C@H](OC(C)=O)[C@]4(CC)C=CCN5CC[C@]31[C@@H]54)C2` [Vinorelbine], under “human, in vivo, iv”, the “Anemia Grade III-IV” value was “Anemia Grade III-IV 5%”, the Constipation entry is on record as “Constipation 3%”, the Diarrhea is given as 4% and the Neurologic result is “Neurologic 9%”. Besides, for the setting “human, in vivo, iv”, the Neuropathy result is on record as “Neuropathy 1%”, the “Neutropenic Infection” value was <1%, the “Neutropenic Sepsis” value is reported as “Neutropenic Sepsis 3%” and the Stomatitis entry is given as “Stomatitis <1%”. The Thrombocytopenia result (human, in vivo, iv) is on record as “Thrombocytopenia 1%”.

On to `N.N.[Cl][Pt][Cl]` [Cisplatin], for which, where the note is “Grade III-IV”, the “Anemia Grade III-IV” value is listed as 11%, the Cardiovascular entry is listed as “Cardiovascular 2%”, the Leukopenia result is “Grade III-IV 7%” and the Neurologic result is on record as “Neurologic 11%”. Also, for the setting “Grade III-IV”, the “Neutropenic Fever” value is listed as “Neutropenic Fever <1%” and the Renal entry is recorded as “Renal 4%”. The Leukopenia entry (Grade III) was “Grade III 18%”. Also, the Leukopenia entry (Grade IV) is given as “Grade IV 3%”. For the same compound, the “Hearing Loss (clinical)” value (human, in vivo) was 12%.

Take `CN(C)c1nc(N(C)C)nc(N(C)C)n1` [Altretamine]: where the note is “human, in vivo, iv”, the “Anemia Grade III-IV” value is listed as “Anemia Grade III-IV 2%”, the Fatigue result was “Fatigue 9%”, the Nausea result is recorded as “Nausea 14%” and the Neurologic result is “Neurologic 2%”. Also, the Vomiting entry (human, in vivo, iv) was “Vomiting 12%”.

As to `O=C1CCC(N2C(=O)c3ccccc3C2=O)C(=O)N1` (stereo not shown) [Thalidomide], where the note is “human, in vivo”, the “Anemia Grade III-IV” value is 3.6% and the Thrombocytopenia result is “Thrombocytopenia 3.6%”.

Turning to Gemcitabine + Cisplatin, where the note is “Grade III-IV”, the “Anemia Grade III-IV” value is 25% and 27%; the “Cardiac Dysrhythmia” value is recorded as 2.8%; the Dyspnea entry was “Dyspnea 7%”; the “Elevated Creatinine” value was “Elevated Creatinine 4.8%”. Further, for the setting “Grade III-IV”, the Nausea entry is “Nausea 27%”, the Neurohearing entry is on record as “Neurohearing 6%”, the “Neutropenic Sepsis” value is recorded as “Neutropenic Sepsis 1%” and the Pulmonary entry is reported as “Pulmonary 3%”. The Vomiting entry (Grade III-IV) was “Vomiting 23%”. In addition, where the note is “Grade III”, the Alopecia is 10.5%, the Diarrhea result is on record as “Diarrhea (Grade III) 3%”, the Granulocytopenia result is “Grade III 21.7%” and the Hematuria was 4.5%. Besides, for the setting “Grade III”, the Nausea/Vomiting entry is given as “(Grade III) 22%”, the Neuromotor is listed as 11.5% and the Neutropenia is listed as 41.2%. Moreover, for the setting “Grade IV”, the Granulocytopenia entry is recorded as “Grade IV 35.3%” and the Neutropenia is given as 29.9%.

As for `Nc1nc(F)nc2c1ncn2[C@@H]1O[C@H](COP(=O)(O)O)[C@@H](O)[C@@H]1O` [fludarabine phosphate, reference compound], the patients developing pneumonia (15-25 mg/m^2 daily for five days every 28 days) is 22% and the patients developing pneumonia (22-40 mg/m^2 daily for five days every 28 days) is 16%.
